In ChEMBL document CHEMBL4330081, “Rational design of 5-((1H-imidazol-1-yl)methyl)quinolin-8-ol derivatives as novel bromodomain-containing protein 4 inhibitors” (Eur J Med Chem, 2019):
Calls of active or inactive are those of the source. The rule behind the calls is not given here.

Key:
[1] = target: T1, Bromodomain-containing protein 4 (Homo sapiens, UniProt O60885); test: Inhibition of BRD4 BD1 (unknown origin) using biotin labelled NeC: SGRG-K(Ac)-GG-K(Ac)-GLG-K(Ac)-GGA-K(Ac)-RHRKVGG-K as substrate preincubated for 15 mins followed by substrate addition measured after 30 mins by alpha screen assay
[2] = target: T1, Bromodomain-containing protein 4; test: Inhibition of BRD4 BD1 (unknown origin) at 50 uM using biotin labelled NeC: SGRG-K(Ac)-GG-K(Ac)-GLG-K(Ac)-GGA-K(Ac)-RHRKVGG-K as substrate preincubated for 15 mins followed by substrate addition measured after 30 mins by alpha screen assay relative to control
MDA-MB-231 = test: Antiproliferative activity against human MDA-MB-231 cells after 72 hrs by CellTiter Glo luminescent assay; assay type: functional, cell-based; settings: MDA-MB-231, 72 h
[3] = Half life in human hepatocytes at 1 uM up to 120 mins by LC/MS analysis; assay type: ADME, cell-based, Hepatocyte
hERG (KCNH2) = hERG (KCNH2) (Homo sapiens, UniProt Q12809); test: in vitro; settings: CHO cells expressing human ERG
hERG (KCNH2), sequence (Q12809 whole entry): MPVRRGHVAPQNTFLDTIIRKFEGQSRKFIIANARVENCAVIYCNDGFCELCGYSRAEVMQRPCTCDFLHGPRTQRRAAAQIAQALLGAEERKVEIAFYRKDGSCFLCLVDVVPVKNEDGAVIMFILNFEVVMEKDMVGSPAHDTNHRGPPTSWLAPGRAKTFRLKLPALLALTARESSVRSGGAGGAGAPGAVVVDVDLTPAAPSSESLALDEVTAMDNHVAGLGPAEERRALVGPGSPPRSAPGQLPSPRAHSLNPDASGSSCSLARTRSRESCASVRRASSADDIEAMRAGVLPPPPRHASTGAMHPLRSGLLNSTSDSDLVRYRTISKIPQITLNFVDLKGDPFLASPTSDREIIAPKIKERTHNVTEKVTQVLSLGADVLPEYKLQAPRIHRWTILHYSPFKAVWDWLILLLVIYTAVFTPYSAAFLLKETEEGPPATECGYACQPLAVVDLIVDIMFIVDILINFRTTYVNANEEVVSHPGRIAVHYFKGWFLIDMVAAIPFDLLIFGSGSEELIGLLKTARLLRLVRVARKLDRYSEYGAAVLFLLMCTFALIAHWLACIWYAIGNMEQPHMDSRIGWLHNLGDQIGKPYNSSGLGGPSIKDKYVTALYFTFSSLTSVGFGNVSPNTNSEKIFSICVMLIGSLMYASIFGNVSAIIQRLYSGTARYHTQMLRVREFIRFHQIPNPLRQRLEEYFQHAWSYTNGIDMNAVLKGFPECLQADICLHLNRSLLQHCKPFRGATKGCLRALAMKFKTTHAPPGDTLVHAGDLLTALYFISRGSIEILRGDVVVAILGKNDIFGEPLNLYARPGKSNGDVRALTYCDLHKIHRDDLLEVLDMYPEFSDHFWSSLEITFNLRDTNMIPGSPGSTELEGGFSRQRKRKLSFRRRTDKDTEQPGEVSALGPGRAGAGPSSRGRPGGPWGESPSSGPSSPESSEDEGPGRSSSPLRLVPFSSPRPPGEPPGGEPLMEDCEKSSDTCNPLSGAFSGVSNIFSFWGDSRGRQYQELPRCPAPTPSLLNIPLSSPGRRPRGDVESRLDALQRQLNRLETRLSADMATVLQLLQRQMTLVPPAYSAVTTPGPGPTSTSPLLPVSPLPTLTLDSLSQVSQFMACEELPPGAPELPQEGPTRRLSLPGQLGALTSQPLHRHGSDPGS
Description: Inhibition of human ERG expressed in CHO cells at 40 uM at -80 mV holding potential after 2.5 mins by Qpatch clamp assay relative to control

[4] = target: T1, Bromodomain-containing protein 4
Description: Stabilization of BRD4 BD1 (unknown origin) assessed as change in melting temperature at protein to test compound molar ratio of 1:40 by SYPRO Orange dye based fluorescence analysis

[5] = target: T1, Bromodomain-containing protein 4; test: Inhibition of BRD4 in human MV4-11 cells assessed as down regulation of c-myc after 6 hrs by Western blot analysis; assay type: cell-based
MM1.S = test: Antiproliferative activity against human MM1S cells after 72 hrs by CellTiter Glo luminescent assay; assay type: functional, cell-based
MV4-11 = test: Antiproliferative activity against human MV4-11 cells after 72 hrs by CellTiter Glo luminescent assay; assay type: functional, cell-based; settings: MV4-11, 72 h
[6] = target: T1, Bromodomain-containing protein 4; test: Inhibition of BRD4 in human MM1S cells assessed as down regulation of c-myc after 6 hrs by Western blot analysis; assay type: cell-based
[7] = target: T1, Bromodomain-containing protein 4; test: Inhibition of BRD4 BD1 (unknown origin) at 10 uM using biotin labelled NeC: SGRG-K(Ac)-GG-K(Ac)-GLG-K(Ac)-GGA-K(Ac)-RHRKVGG-K as substrate preincubated for 15 mins followed by substrate addition measured after 30 mins by alpha screen assay relative to control
[8] = target: T1, Bromodomain-containing protein 4; test: Inhibition of recombinant full length human N-terminal His6-tagged BRD4 (2 to 1362 residues) expressed in baculovirus infected insect cells using histone H4 peptide as substrate by alpha screen assay
[9] = target: T1, Bromodomain-containing protein 4; test: Stabilization of BRD4 BD1 (unknown origin) assessed as change in melting temperature at protein to test compound molar ratio of 1:10 by SYPRO Orange dye based fluorescence analysis
[10] = target: T1, Bromodomain-containing protein 4; test: Stabilization of BRD4 BD1 (unknown origin) assessed as change in melting temperature at protein to test compound molar ratio of 1:80 by SYPRO Orange dye based fluorescence analysis
[11] = target: T1, Bromodomain-containing protein 4; test: Stabilization of BRD4 BD1 (unknown origin) assessed as change in melting temperature at protein to test compound molar ratio of 1:20 by SYPRO Orange dye based fluorescence analysis
[12] = target: T1, Bromodomain-containing protein 4; test: Inhibition of BRD4 in human MV4-11 cells assessed as down regulation of c-myc at 3.125 to 50 uM after 6 hrs by Western blot analysis; assay type: cell-based
[13] = target: T1, Bromodomain-containing protein 4; test: Inhibition of BRD4 in human MDA-MB-231 cells assessed as down regulation of c-myc at 3.125 to 50 uM after 6 hrs by Western blot analysis; assay type: cell-based

Oc1ccc(CNc2ccc(C(F)(F)F)cc2)c2cccnc12
IC50 [1]: 4800 nM

CCOc1c(Br)cc(Br)cc1/C=C/c1ccc2cccc(O)c2n1
inhibition [2]: -0%

Oc1ccc(Cn2cnc3ccccc32)c2cccnc12
IC50 (MDA-MB-231): 4.7 µM | half-life at 1 µM [3]: 31 min | inhibition at 2.5 min, 40 µM (hERG (KCNH2)): 33% | ΔTm [4]: 3.1 °C | inhibition [5]: Dose-dependent effect | IC50 [1]: 337 nM | IC50 (MM1.S): 3000 nM | IC50 (MV4-11): 1 µM | inhibition [6]: Dose-dependent effect

Nc1cc(S(=O)(=O)O)c2cccnc2c1O
inhibition [7]: -0%

O=[N+]([O-])c1cccc(-c2ccc(/C=C/c3ccc4cccc(O)c4n3)o2)c1
inhibition [2]: -0%

O=c1oc2ccc(Cl)cc2n1Cc1ccc(O)c2ncccc12
inhibition [7]: 16%

O=C1CN(Cc2ccc(O)c3ncccc23)Cc2ncccc2N1
ΔTm [4]: 4.3 °C | IC50 [1]: 92 nM | IC50 (MV4-11): 9.6 µM

Oc1c(Br)cc(/C=C/c2ccc3cccc(O)c3n2)cc1Br
inhibition [2]: -0%

Oc1cccc2ccc(/C=C/c3cccc(OCc4ccccc4Cl)c3)nc12
inhibition [2]: -0%

Oc1ccc(CN2CCn3c(nnc3C(F)(F)F)C2)c2cccnc12
ΔTm [4]: 4.9 °C | IC50 [1]: 68 nM | IC50 (MV4-11): 22.4 µM

CC(C)(C)OC(=O)Oc1ccc(Cn2c(-c3cscn3)nc3ccccc32)c2cccnc12
inhibition [7]: 11%

Oc1ccc(CNc2ccc(Cl)cn2)c2cccnc12
inhibition [7]: 12%

CCOC(=O)C1CCCN(Cc2ccc(O)c3ncccc23)C1 (stereo not drawn)
IC50 [1]: 738 nM | inhibition [2]: 97.8%

Cc1nnn(C)c1-c1cnc2c3ccc(C(C)(C)O)cc3n(C(c3ccccc3)C3CCOCC3)c2c1 (stereo not drawn)
IC50 [8]: < 5 nM

Oc1ccc(COn2nnc3ccccc32)c2cccnc12
ΔTm [4]: 4.4 °C | IC50 [1]: 82 nM | IC50 (MV4-11): 12.7 µM

Oc1cccc2ccc(/C=C/c3ccc(-c4cccc(Br)c4)o3)nc12
inhibition [2]: < 7.8%

CN(C)c1ccc2cccc(O)c2n1
inhibition [7]: -0%

Oc1ccc(Cn2cncn2)c2cccnc12
IC50 (MDA-MB-231): 6.7 µM | ΔTm [4]: 3.2 °C | IC50 [1]: 95 nM | IC50 (MM1.S): 4300 nM | IC50 (MV4-11): 5.2 µM

CC(C)(C)OC(=O)Oc1ccc(Cn2ccnc2)c2cccnc12
IC50 (MDA-MB-231): 31.5 µM | ΔTm [4]: 4.5 °C | IC50 [1]: 176 nM | IC50 (MM1.S): 1800 nM | IC50 (MV4-11): 11.5 µM

Cc1ccc2c(Cn3ccnc3)ccc(O)c2n1
inhibition [7]: 41%

Cc1ccc2c(Cn3cnc(F)c3)ccc(OC(=O)OC(C)(C)C)c2n1
IC50 (MDA-MB-231): 2.7 µM | half-life at 1 µM [3]: 1.6 min | ΔTm [4]: 4.6 °C | IC50 [1]: 46 nM | IC50 (MM1.S): 1100 nM | IC50 (MV4-11): 2.9 µM

O=[N+]([O-])c1ccc(O)c2ncccc12 [NITROXOLINE]
ΔTm [4]: 3.9 °C | IC50 (MV4-11): 4.9 µM

Oc1ccc(Cn2cccn2)c2cccnc12
IC50 (MDA-MB-231): 3.6 µM | inhibition at 2.5 min, 40 µM (hERG (KCNH2)): 8.3% | ΔTm [4]: 4.5 °C | IC50 [1]: 76 nM | IC50 (MM1.S): 700 nM | IC50 (MV4-11): 1.6 µM

Oc1ccc(CSc2nc3ccccc3s2)c2cccnc12
inhibition [7]: 18%

CC(=O)Oc1ccc(Cn2cnc(F)c2)c2cccnc12
IC50 (MDA-MB-231): 2.2 µM | ΔTm [4]: 4.7 °C | IC50 [1]: 70 nM | IC50 (MM1.S): 1100 nM | IC50 (MV4-11): 2.9 µM

O=C(C[n+]1cccc2cccc(O)c21)c1ccc(Cl)cc1
inhibition [2]: -0%

Oc1ccc(Cn2ccnc2)c2cccnc12
half-life at 1 µM [3]: 21 min | inhibition at 2.5 min, 40 µM (hERG (KCNH2)): 10% | ΔTm [4]: 3.9 °C | ΔTm [9]: 1.8 °C | IC50 [1]: 101 nM | ΔTm [10]: 5 °C | IC50 (MV4-11): 27 µM | ΔTm [11]: 2.8 °C

O=S(=O)(O)c1ccc(/N=N/c2ccc(O)c3ncccc23)cc1
inhibition [7]: -0%

O=C(C[n+]1cccc2cccc(O)c21)c1ccccc1
inhibition [2]: -0%

COc1nnc2ccc(N3CCC(c4ccc(OCCN5CCN(C)C(=O)C5C)cc4)CC3)nn12 (stereo not drawn)
IC50 [8]: 1.7 nM

O=C1c2ccccc2C(=O)N1Cc1ccc(O)c2ncccc12
inhibition [7]: 30%

Cc1cc2ncn(Cc3ccc(O)c4ncccc34)c2cc1C
inhibition [7]: 23%

Oc1cccc2ccc(N3CCCCC3)nc12
inhibition [7]: -0%

Cc1cc(O)c2cccc(O)c2n1
inhibition [2]: -0%

O=C(CCc1ccccc1)N/N=C/c1ccc(O)c2ncccc12
inhibition [7]: 86% | IC50 [1]: 4300 nM

CC(=O)Oc1ccc(Cn2ccnc2)c2cccnc12
ΔTm [4]: 4.3 °C | IC50 [1]: 61 nM | IC50 (MV4-11): 28.5 µM

O=C(N/N=C/c1ccc(O)c2ncccc12)c1cccc(Br)c1
inhibition [7]: 73% | IC50 [1]: 5200 nM

Oc1ccc(CNc2cccc(C(F)(F)F)c2)c2cccnc12
inhibition [7]: 84% | IC50 [1]: 4800 nM

Oc1ccc(Cn2nnc3ccccc32)c2cccnc12
IC50 (MDA-MB-231): 1.3 µM | inhibition at 2.5 min, 40 µM (hERG (KCNH2)): 24% | ΔTm [4]: 4.3 °C | IC50 [1]: 155 nM | IC50 (MM1.S): 300 nM | IC50 (MV4-11): 1 µM

COc1ccc(C)cc1/N=N/c1ccc(O)c2nc(C=O)ccc12
inhibition [7]: 20%

Nc1ccc(-c2nc3ccc(-c4nc5ccc(N)cc5[nH]4)cc3[nH]2)cc1
inhibition [7]: -0%

Nc1ccc2c(Cn3ccnc3)ccc(O)c2n1
ΔTm [4]: 3.8 °C | IC50 [1]: 292 nM | IC50 (MV4-11): 20.4 µM

Cc1cc(C)n(-c2ccc3c(Cl)cc(Cl)c(O)c3n2)n1
inhibition [7]: -0%

O=[N+]([O-])c1cccc(S(=O)(=O)Nc2ccc(O)c3ncccc23)c1
inhibition [7]: -0%

Oc1ccc(CNc2ccccc2Br)c2cccnc12
inhibition [2]: 46%

Cc1cc(C)c2ccc(NN)nc2c1O
IC50 [1]: 18000 nM | inhibition [2]: 88%

Oc1ccc(Cn2cnc(F)c2)c2cccnc12
IC50 (MDA-MB-231): 34.3 µM | half-life at 1 µM [3]: 23 min | inhibition at 2.5 min, 40 µM (hERG (KCNH2)): 10% | ΔTm [4]: 4.6 °C | inhibition [5]: Dose-dependent effect | IC50 [1]: 70 nM | IC50 (MM1.S): 1200 nM | IC50 (MV4-11): 2.2 µM | inhibition [6]: Dose-dependent effect

CC1=NN(c2ccc3cccc(O)c3n2)C(=O)C1
inhibition [7]: 99% | IC50 [1]: 1000 nM

Oc1ccc(CN2CCCCCC2)c2cccnc12
IC50 [1]: 670 nM | inhibition [2]: 46 to 99%

Cc1cc(C)c2ccc(C=O)nc2c1O
inhibition [7]: -0%

O=[N+]([O-])c1cc([N+](=O)[O-])c2cccnc2c1O
inhibition [7]: 27%

Oc1ccc(Cn2c(-c3cscn3)nc3ccccc32)c2cccnc12
IC50 (MDA-MB-231): 3.7 µM | ΔTm [4]: 4.7 °C | IC50 [1]: 73 nM | IC50 (MM1.S): 2100 nM | IC50 (MV4-11): 1.5 µM

CC(C)(CCl)C(=O)Oc1ccc(Cn2ccnc2)c2cccnc12
IC50 (MDA-MB-231): 12.4 µM | ΔTm [4]: 2.4 °C | IC50 [1]: 54 nM | IC50 (MM1.S): 3600 nM | IC50 (MV4-11): 8.9 µM

Cn1c(/N=N/c2ccc(O)c3ncccc23)nc2ccccc21
inhibition [7]: 100% | IC50 [1]: 370 nM

CCCOCc1ccc(O)c2ncccc12
inhibition [7]: 96% | IC50 [1]: 2100 nM

COC(=O)C(O)(c1cc(C)c2cccnc2c1O)C(F)(F)F (stereo not drawn)
inhibition [2]: 97%

N=C(N)NCCC[C@H](NC(=O)CCC(=O)OC[N+]1(c2cc(=O)c3cccc(-c4ccccc4)c3o2)CCOCC1)C(=O)NCC(=O)N[C@@H](CC(=O)O)C(=O)N[C@@H](CO)C(=O)[O-] [SF-1126]
IC50 [8]: 5300 nM

C=CC[n+]1cccc2cccc(O)c21
inhibition [2]: -0%

O=C(Cc1ccccc1)N/N=C/c1ccc(O)c2ncccc12
inhibition [7]: 82% | IC50 [1]: 4700 nM

Oc1ccc(CSc2ccccc2)c2cccnc12
inhibition [7]: 86% | IC50 [1]: 3000 nM

O=C(Oc1ccc(Cn2ccnc2)c2cccnc12)c1ccccc1
IC50 (MDA-MB-231): 12.3 µM | half-life at 1 µM [3]: 1.4 min | ΔTm [4]: 3.8 °C | IC50 [1]: 67 nM | IC50 (MM1.S): 2900 nM | IC50 (MV4-11): 9 µM

O=S(=O)(Nc1ccc(O)c2ncccc12)c1ccc(Cl)cc1
inhibition [7]: -0%

Cc1cc(C)c2ccc(/C=N/O)nc2c1O
inhibition [7]: 6%

COc1ccc(C)cc1/N=N/c1ccc(O)c2nc(/C=N/O)ccc12
inhibition [7]: 24%

O=C(C[n+]1cccc2cccc(O)c21)c1ccc(F)cc1
inhibition [2]: -0%

Cc1sc2c(c1C)C(c1ccccc1)=N[C@@H](CC(=O)OC(C)(C)C)c1nnc(C)n1-2
IC50 [8]: 33 nM

Oc1c(Br)cc(Br)cc1/C=C/c1ccc2cccc(O)c2n1
inhibition [2]: -0%

O=[N+]([O-])c1ccc2c(c1)ncn2Cc1ccc(O)c2ncccc12
inhibition [12]: Active | IC50 (MDA-MB-231): 1.1 µM | half-life at 1 µM [3]: 27 min | ΔTm [4]: 4 °C | IC50 [1]: 107 nM | inhibition [13]: inactive | IC50 (MM1.S): 10900 nM | IC50 (MV4-11): 1 µM

O=S(=O)(O)c1ccc2cccc(O)c2n1
inhibition [2]: 47.4%

Cc1ccc(C(=O)C[n+]2cccc3cccc(O)c32)cc1
inhibition [2]: -0%

O=C1c2ccccc2C(=O)N1CCCOc1ccc(Cn2ccnc2)c2cccnc12
inhibition [7]: 21%
